Assay results from patent publication US9776972B2, “Pyrazole derivatives as arginine methyltransferase inhibitors and uses thereof” (priority 2013, dated 2017).
Counter-ions that a name gives are not always drawn. Like-named read-outs stand apart in the source and are kept apart here.

Key:
[1] = tested on: mono-methyl arginine in RKO cells; assay: RKO Methylation Assay, In Cell Western (ICW) for mono-methyl arginine and DNA content; assay type: cell-based; conditions: Homo sapiens, RKO, 72 h
Procedure, shortened: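 After fixation, mono-methyl arginine and DNA (DRAQ5) were measured by infrared In-Cell Western imaging at 700/800 nm in RKO cells exposed to compounds for 72 hours. Percent activation used DMSO wells as minimum and 20 μM reference compound as maximum; EC30 curves fitted on triplicate wells.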

[2] = biological target: human PRMT8 (Homo sapiens, UniProt Q9NR22); assay: PRMT8 Biochemical Assay (3H-SAM Flashplate, peptide substrate)
Source text: S-adenosylmethionine (SAM), S-adenosylhomocysteine (SAH), bicine, Tween20, dimethylsulfoxide (DMSO), bovine skin gelatin (BSG), isopropyl-β-D-thiogalactopyranoside (IPTG), and Tris(2-carboxyethyl)phosphine hydrochloride solution (TCEP) were purchased from Sigma-Aldrich at the highest level of purity possible. ^3H-SAM was purchase from American Radiolabeled Chemicals with a specific activity of 80 Ci/mmol. 384-well streptavidin Flashplates were purchased from PerkinElmer.
Peptide representative of human histone H4 residues 31-45 was synthesized with an N-terminal linker-affinity tag motif and a C-terminal amide cap by 21st Century Biochemicals.
E. coli (BL21(DE3) Gold, Stratagene) made competent by the CaCl2 method were transformed with the PRMT8 construct and ampicillin selection. Protein over-expression was accomplished by growing the PRMT8 expressing E. coli clone and inducing expression with 0.3 mM IPTG at 16° C. The culture was grown for 12 hours, harvested by centrifugation, and stored at −80° C. for purification.
GST-tagged PRMT8 was eluted with 50 mM Tris, 2 mM glutathione, pH 7.8. Pooled fractions were cleaved by thrombin (10 U) and dialysed in buffer A. GST was removed by reloading the cleaved protein sample onto glutathione sepharose column and PRMT8 was collected in the flow-through fractions. PRMT8 was purified further by ceramic hydroxyapatite chromatography. The column was washed with 50 mM phosphate buffer, 100 mM NaCl, 5% glycerol, 5 mM β-mercaptoethanol, pH 7.8 and PRMT8 was eluted by 100 mM phosphate in the same buffer. Protein was concentrated and buffer was exchanged to 50 mM Tris, 300 mM NaCl, 10% glycerol, 5 mM β-mercaptoethanol, pH 7.8 by ultrafiltration.
General Procedure for PRMT8 Enzyme Assays on Peptide Substrates.
The assays were all performed in a buffer consisting of 20 mM Bicine (pH=7.6), 1 mM TCEP, 0.005% BSG, and 0.002% Tween 20, prepared on the day of use. […] DMSO (1 ul) was added to Columns 11, 12, 23, 24, rows A-H for the maximum signal control and 1 ul of SAH, a known product and inhibitor of PRMT8, was added to columns 11, 12, 23, 24, rows I-P for the minimum signal control. A cocktail (40 ul) containing the PRMT8 enzyme was added by Multidrop Combi (Thermo-Fisher). The compounds were allowed to incubate with PRMT8 for 30 min at room temperature, then a cocktail (10 ul) containing ^3H-SAM and peptide was added to initiate the reaction (final volume=51 ul). […] The assays were stopped by the addition of non-radiolabeled SAM (10 ul) to a final concentration of 400 uM, which dilutes the ^3H-SAM to a level where its incorporation into the peptide substrate is no longer detectable. 50 ul of the reaction in the 384-well polypropylene plate was then transferred to a 384-well Flashplate and the biotinylated peptides were allowed to bind to the streptavidin surface for at least 1 hour before being washed once with 0.1% Tween20 in a Biotek ELx405 plate washer. The plates were then read in a PerkinElmer TopCount plate reader to measure the quantity of ^3H-labeled peptide bound to the Flashplate surface, measured as disintegrations per minute (dpm) or alternatively, referred to as counts per minute (cpm).
Where dpm=disintegrations per minute, cmpd=signal in assay well, and min and max are the respective minimum and maximum signal controls.
Where top and bottom are the normally allowed to float, but may be fixed at 100 or 0 respectively in a 3-parameter fit. The Hill Coefficient normally allowed to float but may also be fixed at 1 in a 3-parameter fit. Y is the % inhibition and X is the compound concentration.

[3] = RKO cells, 72 hours, mono-methyl arginine, percent activation, single experiment or average of multiple experiments, read-out: EC30 (In Cell Western data, Numerical)
[4] = single experiment or average of multiple experiments
[5] = read-out: EC30 (In Cell Western data, Numerical, μM)

Sequence of human PRMT8 (Q9NR22 whole entry): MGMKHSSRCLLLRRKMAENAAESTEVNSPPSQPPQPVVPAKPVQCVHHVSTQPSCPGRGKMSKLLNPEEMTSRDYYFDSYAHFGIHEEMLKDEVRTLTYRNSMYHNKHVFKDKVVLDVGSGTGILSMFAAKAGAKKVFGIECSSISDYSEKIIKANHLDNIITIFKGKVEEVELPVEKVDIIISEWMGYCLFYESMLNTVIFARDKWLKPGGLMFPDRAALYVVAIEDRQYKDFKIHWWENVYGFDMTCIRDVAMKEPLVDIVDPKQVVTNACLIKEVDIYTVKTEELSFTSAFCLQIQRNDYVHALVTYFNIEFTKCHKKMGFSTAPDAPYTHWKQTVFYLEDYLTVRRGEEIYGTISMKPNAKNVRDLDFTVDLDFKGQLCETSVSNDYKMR

Compound | EC30 [1, 3] [µM] | IC50 [2, 4] [nM] | also measured
COCCn1ncc(CN(C)CCN)c1-c1ccc(F)cc1 [Compound 6] | > 20 |  | 
CCn1ncc(CN(C)CCNC)c1-c1ccc(F)cc1 [Compound 7] | 5.76 | 3240 | 
CCn1cc(CN(C)CCNC)c(-c2ccc(F)cc2)n1 [Compound 8] | > 20 | 7200 | 
CN(CCN)Cc1c[nH]nc1-c1ccc(OCC(F)(F)F)cc1 [Compound 96] | 0.92 | 171 | 
CC(C)Oc1ccc(-c2n[nH]cc2CN(C)CCN)cc1F [Compound 97] |  | 89 | EC30 [1, 5]: 0.184 µM
CN(CCN)Cc1c[nH]nc1-c1ccc(C2CCOCC2)cc1 [Compound 98] | 2.85 | 156 | 
CN(CCN)Cc1c[nH]nc1-c1ccc(F)cc1F [Compound 99] | 11.8 | 2200 | 
CN(CCN)Cc1n[nH]cc1-c1ccc(C#N)cc1 [Compound 100] | 2.98 | 290 | 
CC(C)c1ccc(-c2c[nH]nc2CN(C)CCN)cc1 [Compound 101] |  | 570 | EC30 [1, 5]: 5.99 µM
CN(CCN)Cc1n[nH]cc1-c1ccc(Cl)cc1 [Compound 102] | 2.32 | 311 | 
CN(CCN)Cc1n[nH]cc1-c1ccc(C(F)(F)F)cc1 [Compound 103] | 3.67 | 366 | 
CN(CCN)Cc1n[nH]cc1-c1ccc(C2CC2)cc1 [Compound 104] | 3.92 | 301 | 
CN(CCN)Cc1n[nH]cc1-c1ccc(OC(F)(F)F)cc1 [Compound 105] | 2.28 | 130 | 
COc1ccc(-c2n[nH]cc2CN(C)CCN)c(F)c1 [Compound 107] |  | 912 | 
Cc1ccc(-c2n[nH]cc2CN(C)CCN)c(F)c1 [Compound 108] |  | 1000 | 
COc1ccccc1-c1n[nH]cc1CN(C)CCN [Compound 109] |  | 2080 | 
Cc1cc(C#N)ccc1-c1n[nH]cc1CN(C)CCN [Compound 110] |  | 540 | 
CN(CCN)Cc1c[nH]nc1-c1cc(F)cc(F)c1 [Compound 111] |  | 799 | 
CC(=O)c1cccc(-c2n[nH]cc2CN(C)CCN)c1 [Compound 112] |  | 335 | 
CN(CCN)Cc1c[nH]nc1-c1ccc(OC2CC2)cc1 [Compound 114] | 0.607 | 47.5 | 
CC(O)c1ccc(-c2n[nH]cc2CN(C)CCN)cc1 (centres unmarked) [Compound 115] |  | 1100 | 
CN(CCN)Cc1c[nH]nc1-c1ccc(C2CC2)cc1 [Compound 116] | 1.41 | 124 | 
CN(CCN)Cc1c[nH]nc1-c1ccc(C(F)(F)F)c(Cl)c1 [Compound 117] | 1.29 | 87.8 | 
CN(CCN)Cc1c[nH]nc1-c1ccc(Cl)c(F)c1 [Compound 118] | 0.314 | 136 | 
CN(CCN)Cc1n[nH]cc1-c1ccc(OC2CC2)cc1 [Compound 119] | 4.54 | 336 | 

Compound | EC30 [1, 3] [µM] | IC50 [2, 4] [nM] | also measured
CN(CCN)Cc1c[nH]nc1-c1cc(F)cc(Cl)c1 [Compound 121] | 2.07 | 218 | 
CN(CCN)Cc1c[nH]nc1-c1cccc(Cl)c1 [Compound 122] | 3.48 | 548 | 
CN(CCN)Cc1c[nH]nc1-c1cccc(Cl)c1F [Compound 123] | 2.96 | 532 | 
CN(CCN)Cc1c[nH]nc1-c1ccc(F)c(Cl)c1 [Compound 124] | 1.23 | 294 | 
COc1ccc(-c2n[nH]cc2CN(C)CCN)cc1Cl [Compound 125] |  | 308 | EC30 [1, 5]: 1.57 µM
Cc1ccc(-c2n[nH]cc2CN(C)CCN)cc1Cl [Compound 126] | 1.23 | 232 | 
COc1cc(Cl)cc(-c2n[nH]cc2CN(C)CCN)c1 [Compound 127] | 7.01 | 548 | 
Cc1c(F)cccc1-c1n[nH]cc1CN(C)CCN [Compound 129] | 7.38 | 990 | 
COc1cccc(-c2n[nH]cc2CN(C)CCN)c1 [Compound 130] | 3.92 | 645 | 
Cc1cccc(-c2n[nH]cc2CN(C)CCN)c1 [Compound 131] | 2.56 | 360 | 
CN(CCN)Cc1c[nH]nc1-c1ccc(Cl)cc1F [Compound 132] |  | 365 | EC30 [1, 5]: 2.4 µM
Cc1cc(Cl)ccc1-c1n[nH]cc1CN(C)CCN [Compound 133] | 2.91 | 142 | 
COc1ccc(-c2n[nH]cc2CN(C)CCN)cc1F [Compound 134] | 1.09 | 251 | 
CN(CCN)Cc1c[nH]nc1-c1ccc(C(F)(F)F)cc1Cl [Compound 135] | 8.05 | 1320 | 
CCNC(=O)c1ccc(-c2n[nH]cc2CN(C)CCN)cc1 [Compound 136] | > 20 | 496 | 
CN(CCN)Cc1c[nH]nc1-c1cc(Cl)cc(Cl)c1 [Compound 137] | 4.18 | 656 | 
CN(CCN)Cc1n[nH]cc1-c1ccc(OC(F)F)cc1 [Compound 138] | 2.28 | 131 | 
CN(CCN)Cc1c[nH]nc1-c1ccccc1C#N [Compound 140] | > 20 | 8270 | 
CN(CCN)Cc1c[nH]nc1-c1ccc(C(F)(F)F)c(F)c1 [Compound 141] | 0.583 | 305 | 
COc1cc(-c2n[nH]cc2CN(C)CCN)ccc1F [Compound 142] | 2.1 | 273 | 
CCN(CC)C(=O)c1ccc(-c2n[nH]cc2CN(C)CCN)cc1 [Compound 143] | > 20 | 1750 | 
CC(C)Oc1ccc(-c2c[nH]nc2CN(C)CCN)cc1F [Compound 144] | 0.284 | 171 | 
CNCCN(C)Cc1cnn(C)c1-c1ccc(OC(C)C)cc1 [Compound 244, hydrochloride] |  |  | EC30 ([1]; read-out: EC30 (In Cell Western data)): < 3 µM; EC30 [1, 5]: 0.142 µM
CNCCN(C)Cc1c[nH]nc1-c1ccc(OC2COC2)cc1 [Compound 283] | 0.379 | 42.8 | IC50 [2]: < 100 nM; EC30 ([1]; RKO cells, 72 hours, mono-methyl arginine, percent activation, class symbols, read-out: EC30 (In Cell Western data)): < 3 µM
